Source: patent publication US8207172B2 (Bayer Intellectual Property GmbH, priority 2004, dated 2012)
Counter-ions that a name gives are not always drawn.

Key:
[1] = tested on: BT474 (human breast carcinoma); experiment: In vitro tumor cell proliferation assay (Cell Titer-Glo luminescent cell viability), BT474; format: cell-based; details: BT-474, 72 h, BT474 cells, 72 hours of drug exposure, ATP luminescence readout, read-out: IC50, anti-proliferative activity (inhibition of cell proliferation)
Outline: (§1)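 Proliferation inhibition was measured as ATP-dependent luciferase signal after cells in RPMI with 10% FBS received test compound for 72 h at 37° C. Final concentrations spanned […] to 64 pM in 0.1% DMSO; IC50 values were derived.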

[2] = tested on: A431 cells (human epidermoid carcinoma); experiment: In vitro tumor cell proliferation assay (Cell Titer-Glo luminescent cell viability), A431; format: cell-based; details: A-431, 72 h, 72 hours of drug exposure, ATP luminescence readout, read-out: IC50, anti-proliferative activity (inhibition of cell proliferation)
Outline: as §1

| Structure (SMILES) | IC50 [1] [µM] | IC50 [2] [µM] |
| --- | --- | --- |
| CN1CCN(CC(=O)N2CCC(n3cc4c(n3)CCc3c-4sc4ncnc(Nc5ccc(OCc6cccc(F)c6)c(Cl)c5)c34)CC2)CC1 [Example 224, N-{3-chloro-4-[(3-fluorobenzyl)oxy]phenyl}-2-{1-[(4-methylpiperazin-1-yl)acetyl]piperidin-4-yl}-4,5-dihydro-2H-pyrimido[5′,4′:4,5]thieno[2,3-e]indazol-6-amine] | ≤ 1 | ≤ 5 |
| OCCn1cc2c(n1)CCc1c-2sc2ncnc(Nc3ccc(OCc4ccccn4)c(Cl)c3)c12 [Example 99, 2-(6-{[3-chloro-4-(pyridin-2-ylmethoxy)phenyl]amino}-4,5-dihydro-2H-pyrimido[5′,4′:4,5]thieno[2,3-e]indazol-2-yl)ethanol] | ≤ 1 | ≤ 5 |
| C=CCn1cc2c(n1)CCc1c-2sc2ncnc(Nc3ccc(OCc4cccc(F)c4)c(Cl)c3)c12 [Example 128, 2-allyl-N-{3-chloro-4-[(3-fluorobenzyl)oxy]phenyl}-4,5-dihydro-2H-pyrimido[5′,4′:4,5]thieno[2,3-e]indazol-6-amine trifluoroacetate (Salt)] | ≤ 1 | ≤ 50 |
| CCCn1cc2c(n1)CCc1c-2sc2ncnc(Nc3ccc(OCc4cccc(F)c4)c(Cl)c3)c12 [Example 130, N-{3-chloro-4-[(3-fluorobenzyl)oxy]phenyl}-2-propyl-4,5-dihydro-2H-pyrimido[5′,4′:4,5]thieno[2,3-e]indazol-6-amine trifluoroacetate] | ≤ 5 | ≤ 50 |
| CN1CCN(CCn2cc3c(n2)CCc2c-3sc3ncnc(Nc4cc(Cl)c(Cl)cc4F)c23)CC1 [Example 344, N-(4,5-dichloro-2-fluorophenyl)-2-[2-(4-methylpiperazin-1-yl)ethyl]-4,5-dihydro-2H-pyrimido[5′,4′:4,5]thieno[2,3-e]indazol-6-amine trifluoroacetate] | ≤ 5 | ≤ 5 |
| CCN1CCN(CCn2cc3c(n2)CCc2c-3sc3ncnc(Nc4ccc(OCc5cccc(F)c5)c(Cl)c4)c23)CC1 [Example 121, N-{3-chloro-4-[(3-fluorobenzyl)oxy]phenyl}-2-[2-(4-ethylpiperazin-1-yl)ethyl]-4,5-dihydro-2H-pyrimido[5′,4′:4,5]thieno[2,3-e]indazol-6-amine] | ≤ 1 | ≤ 5 |
| CCN(CC)CC(=O)N1CCC(Cn2cc3c(n2)CCc2c-3sc3ncnc(Nc4ccc(OCc5cccc(F)c5)c(Cl)c4)c23)CC1 [Example 242, N-{3-chloro-4-[(3-fluorobenzyl)oxy]phenyl}-2-({1-[(diethylamino)acetyl]piperidin-4-yl}methyl)-4,5-dihydro-2H-pyrimido[5′,4′:4,5]thieno[2,3-e]indazol-6-amine trifluoroacetate] | ≤ 1 | ≤ 5 |
| COCCNCCn1cc2c(n1)CCc1c-2sc2ncnc(Nc3ccc(OCc4cccc(F)c4)c(Cl)c3)c12 [Example 59, N-{3-chloro-4-[(3-fluorobenzyl)oxy]phenyl}-2-{2-[(2-methoxyethyl)amino]ethyl}-4,5-dihydro-2H-pyrimido[5′,4′:4,5]thieno[2,3-e]indazol-6-amine] | ≤ 1 | ≤ 5 |
| O=C(Cn1ncc2c1CCc1c-2sc2ncnc(Nc3ccc(OCc4cccc(F)c4)c(Cl)c3)c12)Nc1cccnc1 [Example 210, 2-[6-({3-chloro-4-[(3-fluorobenzyl)oxy]phenyl}amino)-4,5-dihydro-3H-pyrimido[5′,4′:4,5]thieno[2,3-e]indazol-3-yl]-N-pyridin-3-ylacetamide] | ≤ 1 | ≤ 5 |
| O[C@H](Cn1ccnc1)Cn1cc2c(n1)CCc1c-2sc2ncnc(Nc3ccc(OCc4cccc(F)c4)c(Cl)c3)c12 [Example 141, (2R)-1-[6-({3-chloro-4-[(3-fluorobenzyl)oxy]phenyl}amino)-4,5-dihydro-2H-pyrimido[5′,4′:4,5]thieno[2,3-e]indazol-2-yl]-3-(1H-imidazol-1-yl)propan-2-ol trifluoroacetate (salt)] | ≤ 1 | ≤ 50 |
| CN(C)CCNCCn1cc2c(n1)CCc1c-2sc2ncnc(Nc3ccc(F)c(Cl)c3)c12 [Example 16, N′-(2-{6-[(3-chloro-4-fluorophenyl)amino]-4,5-dihydro-2H-pyrimido[5′,4′:4,5]thieno[2,3-e]indazol-2-yl}ethyl)-N,N-dimethylethane-1,2-diamine] | ≤ 5 | ≤ 5 |
| Fc1cccc(Cn2ncc3cc(Nc4ncnc5sc6c(c45)CCc4c-6cnn4CCN4CCOCC4)ccc32)c1 [Example 296, N-[1-(3-fluorobenzyl)-1H-indazol-5-yl]-3-(2-morpholin-4-ylethyl)-4,5-dihydro-3H-pyrimido[5′,4′:4,5]thieno[2,3-e]indazol-6-amine] | ≤ 1 | ≤ 5 |
| COCCN(C)CCn1cc2c(n1)CCc1c-2sc2ncnc(Nc3ccc(F)c(Cl)c3)c12 [Example 10, N-(3-chloro-4-fluorophenyl)-2-{2-[(2-methoxyethyl)(methyl)amino]ethyl}-4,5-dihydro-2H-pyrimido[5′,4′:4,5]thieno[2,3-e]indazol-6-amine] | ≤ 5 | ≤ 5 |
| Fc1cccc(COc2ccc(Nc3ncnc4sc5c(c34)CCc3nn(CCCl)cc3-5)cc2Cl)c1 [Example 79, 2-(2-chloroethyl)-N-{3-chloro-4-[(3-fluorobenzyl)oxy]phenyl}-4,5-dihydro-2H-pyrimido[5′,4′:4,5]thieno[2,3-e]indazol-6-amine] | ≤ 1 | ≤ 50 |
| CN1CCN(CCn2cc3c(n2)CCc2c-3sc3ncnc(Nc4ccc5c(cnn5Cc5cccc(F)c5)c4)c23)CC1 [Example 277] | ≤ 1 | ≤ 5 |
| CN(C)C1CCN(CCn2ncc3c2CCc2c-3sc3ncnc(Nc4ccc(OCc5cccc(F)c5)c(Cl)c4)c23)C1 (stereo not shown) [Example 267, N-{3-chloro-4-[(3-fluorobenzyl)oxy]phenyl}-3-{2-[3-(dimethylamino)pyrrolidin-1-yl]ethyl}-4,5-dihydro-3H-pyrimido[5′,4′:4,5]thieno[2,3-e]indazol-6-amine trifluoroacetate] | ≤ 1 | ≤ 5 |
| Fc1cccc(COc2ccc(Nc3ncnc4sc5c(c34)CCc3nn(C4CCNCC4)cc3-5)cc2Cl)c1 [Example 217, N-{3-chloro-4-[(3-fluorobenzyl)oxy]phenyl}-2-piperidin-4-yl-4,5-dihydro-2H-pyrimido[5′,4′:4,5]thieno[2,3-e]indazol-6-amine] | ≤ 1 | ≤ 5 |
| COCCn1cc2c(n1)CCc1c-2sc2ncnc(Nc3ccc(OCc4cccc(F)c4)c(Cl)c3)c12 [Example 312, N-{3-chloro-4-[(3-fluorobenzyl)oxy]phenyl}-2-(2-methoxyethyl)-4,5-dihydro-2H-pyrimido[5′,4′:4,5]thieno[2,3-e]indazol-6-amine] | ≤ 5 | ≤ 50 |
| CCNC[C@@H](O)Cn1ncc2c1CCc1c-2sc2ncnc(Nc3ccc(OCc4cccc(F)c4)c(Cl)c3)c12 [Example 169, (2R)-1-[6-({3-chloro-4-[(3-fluorobenzyl)oxy]phenyl}amino)-4,5-dihydro-3H-pyrimido[5′,4′:4,5]thieno[2,3-e]indazol-3-yl]-3-(ethylamino)propan-2-ol trifluoroacetate (salt)] | ≤ 1 | ≤ 50 |
| CN1CCN(CCn2cc3c(n2)CCc2c-3sc3ncnc(Nc4ccc(SCc5ccncc5)cc4)c23)CC1 [Example 342, 2-[2-(4-methylpiperazin-1-yl)ethyl]-N-{4-[(pyridin-4-ylmethyl)thio]phenyl}-4,5-dihydro-2H-pyrimido[5′,4′:4,5]thieno[2,3-e]indazol-6-amine] | ≤ 5 | ≤ 50 |
| Cc1cccc(COc2ccc(Nc3ncnc4sc5c(c34)CCc3nn(CCOS(C)(=O)=O)cc3-5)cc2Cl)n1 [Example 116, 2-[6-({3-chloro-4-[(6-methylpyridin-2-yl)methoxy]phenyl}amino)-4,5-dihydro-2H-pyrimido[5′,4′:4,5]thieno[2,3-e]indazol-2-yl]ethyl methanesulfonate] | ≤ 5 | ≤ 50 |
| CCN1CCN(CCn2cc3c(n2)CCc2c-3sc3ncnc(Nc4ccc5c(cnn5Cc5cccc(F)c5)c4)c23)CC1 [Example 283, 2-[2-(4-ethylpiperazin-1-yl)ethyl]-N-[1-(3-fluorobenzyl)-1H-indazol-5-yl]-4,5-dihydro-2H-pyrimido[5′,4′:4,5]thieno[2,3-e]indazol-6-amine] | ≤ 1 | ≤ 5 |
| CS(=O)(=O)CCNCCn1cc2c(n1)CCc1c-2sc2ncnc(Nc3ccc(F)c(Cl)c3)c12 [Example 13, N-(3-chloro-4-fluorophenyl)-2-(2-{[2-(methylsulfonyl)ethyl]amino}ethyl)-4,5-dihydro-2H-pyrimido[5′,4′:4,5]thieno[2,3-e]indazol-6-amine] | ≤ 5 | ≤ 5 |
| Fc1ccc(Nc2ncnc3sc4c(c23)CCc2c-4cnn2CCN2CCNCC2)cc1Cl [Example 94, N-(3-chloro-4-fluorophenyl)-3-(2-piperazin-1-ylethyl)-4,5-dihydro-3H-pyrimido[5′,4′:4,5]thieno[2,3-e]indazol-6-amine] | ≤ 5 | ≤ 5 |
| CCN1CCN(CCn2cc3c(n2)CCc2c-3sc3ncnc(Nc4ccc(OCc5cccc(C)n5)c(Cl)c4)c23)CC1 [Example 118, N-{3-chloro-4-[(6-methylpyridin-2-yl)methoxy]phenyl}-2-[2-(4-ethylpiperazin-1-yl)ethyl]-4,5-dihydro-2H-pyrimido[5′,4′:4,5]thieno[2,3-e]indazol-6-amine] | ≤ 5 | ≤ 50 |
| CN1CCN(CCn2cc3c(n2)CCc2c-3sc3ncnc(Nc4ccc(OCc5ccccn5)c(Cl)c4)c23)CC1 [Example 102, N-[3-chloro-4-(pyridin-2-ylmethoxy)phenyl]-2-[2-(4-methylpiperazin-1-yl)ethyl]-4,5-dihydro-2H-pyrimido[5′,4′:4,5]thieno[2,3-e]indazol-6-amine] | ≤ 1 | ≤ 5 |
